Earlier results in patent US6576256B2, “Treatment of patients at elevated cardiovascular risk with a combination of a cholesterol-lowering agent, an inhibitor of the renin-angiotensin system, and aspirin” (priority 2001, dated 2003).

Key:
[1] = test system: patients at risk for cardiovascular events; settings: daily administration of low doses (approximately 80 mg)
blood pressure = settings: relative to angiotensin II

Row | Molecule | reduction of second heart attacks, strokes, and cardiovascular deaths [1] | hypertensive activity as share of that of angiotensin II (blood pressure)
1 | CC(=O)Oc1ccccc1C(=O)O [aspirin, acetylsalicylic acid] | at least 25% | 
2 | angiotensin I (DRVYIHPFHL; Angiotensin-1; UniProt P01019 25-34, looked up) [decapeptide formed by renin acting on angiotensinogen] |  | about 1%
